Results as given in ChEMBL document CHEMBL5260828, “Amphiphilic glycoconjugates as potential anti-cancer chemotherapeutics” (Eur J Med Chem, 2018).
pIC50: −log10 of the molar value. In brackets after ≈: the same amount, converted by molar mass.

Legend:
HeLa [1] = assay: Antiproliferative activity against human HeLa cells assessed as inhibition of cell growth incubated for 24 hrs by MTT assay; type: functional, cell-based
NUGC-3 = assay: Cytotoxicity against human NUGC-3 cells assessed as cell growth inhibition by measuring lethal dose incubated for 30 mins by MTT assay; type: functional; details: NUGC-3, 0.5 h, read-out: LD50 (the source's name)
HepG2 = assay: Cytotoxicity against human HepG2 cells assessed as cell growth inhibition by MTT colorimetric assay; type: functional, cell-based
Hep 3B2 = assay: Cytotoxicity against human Hep3B cells assessed as cell growth inhibition by MTT colorimetric assay; type: functional, cell-based
MDA-MB-231 = assay: Cytotoxicity against human MDA-MB-231 cells assessed as cell growth inhibition by MTT colorimetric assay; type: functional, cell-based
Ca9-22 = assay: Cytotoxicity against human Ca9-22 cells assessed as cell growth inhibition by MTT colorimetric assay; type: functional, cell-based
HeLa S3 [2] = assay: Cytotoxicity against human HeLa S3 cells; type: functional, cell-based; details: hela s3
P388 = assay: Cytotoxicity against mouse P388 cells; type: functional, cell-based; details: p388
B16 = assay: Cytotoxicity against mouse B16 cells; type: functional, cell-based; details: b16
NCI-H69 = assay: Cytotoxicity against human NCI-H69 cells; type: functional, cell-based; details: nci-h69
P388/ADM = assay: Cytotoxicity against mouse P388/ADM cells; type: functional, cell-based; details: p388/adm
Lung NSCLC-N6 cell-line = assay: Cytotoxicity against human Lung NSCLC-N6 cell-line by MTT colorimetric assay; type: functional, cell-based
HCT-116 = assay: Cytotoxicity against human HCT-116 cells assessed as cell growth inhibition incubated for 72 hrs by celltiter 96 aqueous cell proliferation assay; type: functional, cell-based; details: HCT-116, 72 h
HL-60 = assay: Cytotoxicity against human HL-60 cells assessed as inhibition of cell proliferation incubated for 72 hrs by MTT assay; type: functional, cell-based; details: HL-60, 72 h
HeLa S3 [3] = assay: Cytotoxicity against human HeLa S3 cells assessed as inhibition of cell proliferation incubated for 72 hrs by MTT assay; type: functional, cell-based; details: HeLa S3, 72 h
HeLa [4] = assay: Cytotoxicity against human HeLa cells assessed as inhibition of cell proliferation incubated for 72 hrs by MTT assay; type: functional, cell-based
MIA PaCa-2 = assay: Cytotoxicity against human MIA PaCa-2 cells assessed as inhibition of cell growth incubated for 72 hrs by CellTiter 96 aqueous one solution assay; type: functional, cell-based; details: MIA PaCa-2, 72 h
PK9 = assay: Cytotoxicity against human PK9 cells assessed as inhibition of cell growth incubated for 72 hrs by CellTiter 96 aqueous one solution assay; type: functional, cell-based; details: PK9, 72 h

CCCCCCCCCCCCCCCCCCCCCCCCCCCC(=O)OC[C@H](CC[C@@H]1O[C@H](CO)[C@H](O)[C@H](O)[C@H]1O)OC(=O)CCCCCCCCCCCCCCCCCCCCCCCCCCC
IC50 (HeLa [1]): > 100 µg/mL

CCCCCCCCCCCCCCCCCC(=O)OCC(O)CO[C@H]1O[C@H](CS(=O)(=O)O)[C@@H](O)[C@H](O)[C@H]1O (stereo partly drawn)
CC50 (NUGC-3): 150 µM

CCCCCCCCCCCCOC[C@@H](COC(C)=O)O[C@@H]1OC[C@@H](O)[C@@H](O)[C@@H]1O
IC50 (HepG2): 9.2 µg/mL (≈ 21.2 µM) | IC50 (Hep 3B2): 9.2 µg/mL (≈ 21.2 µM) | IC50 (MDA-MB-231): 9.2 µg/mL (≈ 21.2 µM) | IC50 (Ca9-22): 9.2 µg/mL (≈ 21.2 µM)

C/C=C(\C)C(O[C@@H]1O[C@H](CO)[C@@H](O)[C@H](O)[C@H]1O)C(C)/C=C(C)/C=C/CC(C)(O)/C=C/c1nc(OC)c(OC)c(O)c1C (stereo in doubt; 284)
IC50 (HeLa S3 [2]): 0.98 µg/mL (≈ 1.65 µM) | IC50 (P388): 2.5 µg/mL (≈ 4.21 µM) | IC50 (B16): 0.67 µg/mL (≈ 1.13 µM) | IC50 (NCI-H69): 0.83 µg/mL (≈ 1.4 µM) | IC50 (P388/ADM): 4.2 µg/mL (≈ 7.07 µM)

CO[C@@H]1/C=C(\C)C[C@H](/C=C/C#C[C@H]2C[C@@H]2Cl)OC(=O)[C@@H](C)[C@]2(O)C[C@H](O[C@@H]3O[C@@H](C)[C@H](O[C@@H]4O[C@@H](C)[C@H](O)[C@@](C)(O)[C@H]4O)[C@@](C)(O)[C@H]3OC)[C@@H](C)[C@@H](O2)[C@@H]1C
IC50 (Lung NSCLC-N6 cell-line): 30 µg/mL (≈ 37.4 µM) | pIC50 (HCT-116): 5.70

C/C=C/C/C(C)=C\[C@H]1C/C=C/C=C/C[C@H](C)/C=C(\C)[C@@H](OC)C[C@@H](O)C[C@@H](O[C@@H]2O[C@H](CO)[C@@H](O)[C@H](OC)[C@H]2O)CC(=O)O1
pIC50 (HL-60): 7.40 | pIC50 (HeLa S3 [3]): 5.19

CCCCCCCCCCCCCCOC[C@@H](COO)O[C@@H]1OC[C@@H](O)[C@@H](O)[C@@H]1O
IC50 (HepG2): 9.2 µg/mL (≈ 21.1 µM) | IC50 (Hep 3B2): 9.2 µg/mL (≈ 21.1 µM) | IC50 (MDA-MB-231): 9.2 µg/mL (≈ 21.1 µM) | IC50 (Ca9-22): 9.2 µg/mL (≈ 21.1 µM)

C/C=C/C/C(C)=C\[C@H]1C/C=C/C=C/C[C@H](C)/C=C(\C)[C@@H](OC)C[C@@H](O)C[C@@H](O)CC(=O)O1
pIC50 (HL-60): 7.92 | pIC50 (HeLa S3 [3]): 7.41

C=C1[C@@H](OC)C/C=C/[C@@H](O[C@@H]2O[C@H](CO)[C@@H](O)[C@H](OC)[C@H]2O)CC(=O)O[C@@H](/C=C(/C)C/C=C/C)C/C=C/C=C/C[C@H](C)[C@@H]1OO
pIC50 (HeLa S3 [3]): < 5.00

CCCCCCCCCCCCCCCCCCCCCCCCCCCC(=O)OC[C@H](CC[C@@H]1O[C@H](CO)[C@@H](O)[C@H](O)[C@H]1O)OC(=O)CCCCCCCCCCCCCCCCCCCCCCCCCCC
IC50 (HeLa [1]): > 100 µg/mL

C/C=C/C/C(C)=C/[C@H]1C/C=C/C=C/C[C@H](C)/C=C(\C)[C@@H](OC)C/C=C/[C@@H](O[C@@H]2O[C@H](CO)[C@@H](O)[C@H](OC)[C@H]2O)CC(=O)O1
pIC50 (HeLa [4]): 5.51 | pIC50 (HL-60): 6.18

CCCCCCCCCCCCCCCCCC(=O)OC[C@H](COC1O[C@H](CS(=O)(=O)[O-])[C@@H](O)[C@H](O)[C@H]1O)OCC(=O)CCCCCCCCCCCCCCC.[Na+] (stereo partly drawn)
CC50 (NUGC-3): 80 µg/mL

CCCCCCCCCCCCc1cn(C[C@H]2NC[C@H](O)[C@@H]2O)nn1
pIC50 (MIA PaCa-2): 4.72 | pIC50 (PK9): 4.72

CCCCCCCC/C=C\CCCCCCCCNC(=O)[C@H]1[C@@H]2OC(C)(C)O[C@@H]2[C@](C)(CO)N1CCCC
pIC50 (MIA PaCa-2): 5.44 | pIC50 (PK9): 4.77

CCCCCCCCCCCCc1cn(CC[C@H]2NC[C@@H](O)[C@H]2O)nn1
pIC50 (MIA PaCa-2): 4.72 | pIC50 (PK9): 4.72

C/C=C/C/C(C)=C\[C@H]1C/C=C/C=C/C[C@H](C)/C=C(\C)[C@@H](OC)CCC[C@@H](O[C@@H]2O[C@H](CO)[C@@H](O)[C@H](OC)[C@H]2O)CC(=O)O1
pIC50 (HeLa [4]): 6.72 | pIC50 (HL-60): 7.15

CCCCCCCCCCCCc1cn(C[C@@H]2N[C@@H](C)[C@@H](O)[C@H]2O)nn1
pIC50 (MIA PaCa-2): 4.72 | pIC50 (PK9): 4.72

C/C=C/C/C(C)=C\[C@H]1C/C=C/C=C/C[C@H](C)/C=C(\C)[C@@H](OC)CCC[C@@H](O)CC(=O)O1
pIC50 (HeLa [4]): 7.34 | pIC50 (HL-60): 7.62
